SMILES	melting point
N#CCCC(=O)N[C@H]1CC[C@H](CCN2CCN(c3cc(C(F)(F)F)cc(C(F)(F)F)c3)CC2)CC1 [Example 213, N-(4-{2-[4-(3,5-Bistrifluoromethylphenyl)piperazin-1-yl]ethyl}cyclohexyl)-3-cyanopropanamide]	158 to 159 °C
Cc1cc(C)cc(C2=CCN(CC[C@H]3CC[C@H](NC(=O)CCCC#N)CC3)CC2)c1	166 °C
CC(C)(C)OCC(=O)N[C@H]1CC[C@H](CCN2CCN(c3cccc(C(F)(F)F)c3)CC2)CC1 [Example 135, 2-tert-Butoxy-N-(4-{2-[4-(3-trifluoromethylphenyl)piperazin-1-yl]ethyl}cyclohexyl)acetamide trans/cis 95/5]	81 °C
N#CCC(=O)N[C@H]1CC[C@H](CCN2CCN(c3ccc(Cl)cc3Cl)CC2)CC1 [Example 709, 2-Cyano-N-(4-{2-[4-(2,4-dichlorophenyl)piperazin-1-yl]ethyl}cyclohexyl)acetamide]	189 °C
Cc1ccc(Cl)cc1N1CCN(CC[C@H]2CC[C@H](NC(=O)CCC(N)=O)CC2)CC1 [Example 190, N-(4-{2-[4-(5-Chloro-2-methylphenyl)piperazin-1-yl]ethyl}cyclohexyl)succinamide]	237 to 240 °C
NC(=O)CC(=O)N[C@H]1CC[C@H](CCN2CCN(c3cc(C(F)(F)F)ccc3F)CC2)CC1 [Example 671, N-(4-{2-[4-(2-Fluoro-5-trifluoromethylphenyl)piperazin-1-yl]ethyl}cyclohexyl)-malonamide]	185 °C
CCc1cccc(C2=CCN(CC[C@H]3CC[C@H](NC(=O)CC#N)CC3)CC2)c1	158 °C
O=C(N[C@H]1CC[C@H](CCN2CCN(c3cc(Cl)ccc3F)CC2)CC1)C1=CCCC1 [Example 525, Cyclopent-1-enecarboxylic acid (4-{2-[4-(5-chloro-2-fluorophenyl)piperazin-1-yl]ethyl}cyclohexyl) amide]	198 °C
N#CCC(=O)N[C@H]1CC[C@H](CCN2CCN(c3cccc(C(F)(F)F)c3C#N)CC2)CC1 [Example 103, 2-Cyano-N-(4-{2-[4-(2-cyano-3-trifluoromethylphenyl)piperazin-1-yl]ethyl}cyclohexyl)acetamide]	222 °C
N#CCC(=O)N[C@H]1CC[C@H](CCN2CCN(c3cccc(Cl)c3C#N)CC2)CC1 [Example 246, N-(4-{2-[4-(3-Chloro-2-cyanophenyl)piperazin-1-yl]ethyl}cyclohexyl)-2-cyanoacetamide]	232 to 233 °C
CCOCC(=O)N[C@H]1CC[C@H](CCN2CCN(c3cc(C)cc(Cl)c3)CC2)CC1 [Example 577, N-(4-{2-[4-(3-Chloro-5-methylphenyl)piperazin-1-yl]ethyl}cyclohexyl)-2-ethoxyacetamide]	100 °C
CC(C)(C)c1cc(N2CCN(CC[C@H]3CC[C@H](NC(=O)CC#N)CC3)CC2)cc(C(C)(C)C)c1 [Example 232, 2-Cyano-N-(4-{2-[4-(3,5-di-tert-butylphenyl)piperazin-1-yl]ethyl}cyclohexyl)acetamide]	168 °C
N#Cc1ccccc1N1CCN(CC[C@H]2CC[C@H](NC(=O)C3=CCCC3)CC2)CC1 [Example 74, Cyclopent-1-enecarboxylic acid (4-{2-[4-(2-cyanophenyl)-piperazin-1-yl]ethyl}cyclohexyl)-amide]	167 °C
N#CCCCC(=O)N[C@H]1CC[C@H](CCN2CCN(c3cc(Cl)cc(Cl)c3)CC2)CC1 [Example 261, 4-Cyano-N-(4-{2-[4-(3,5-dichlorophenyl)piperazin-1-yl]ethyl}cyclohexyl)butanamide trans/cis 98/2]	179 °C
N#CCC(=O)N[C@H]1CC[C@H](CCN2CC=C(c3cccc(C#N)c3)CC2)CC1	185 °C
COCCCC(=O)N[C@H]1CC[C@H](CCN2CCN(c3ccc(Cl)cc3Cl)CC2)CC1 [Example 761, N-(4-{2-[4-(2,4-Dichlorophenyl)piperazin-1-yl]ethyl}cyclohexyl)-4-methoxybutanamide]	171 °C
COCC(=O)N[C@H]1CC[C@H](CCN2CCN(c3cc(C(F)(F)F)cc(C(F)(F)F)c3)CC2)CC1 [Example 118, N-(4-{2-[4-(3,5-Bistrifluoro-methylphenyl)piperazin-1-yl]ethyl}cyclohexyl)-2-methoxyacetamide]	164 °C

Further lines, results first:

melting point	SMILES
234 °C	O=C(CC(F)(F)F)N[C@H]1CC[C@H](CCN2CCN(c3ccc(Cl)cc3)CC2)CC1 [Example 480, N-(4-{2-[4-(4-Chlorophenyl)-piperazin-1-yl]ethyl}cyclohexyl)-3,3,3-trifluoropropanamide]
214 °C	CS(=O)(=O)CC(=O)N[C@H]1CC[C@H](CCN2CCN(c3cccc(F)c3F)CC2)CC1 [Example 426, N-(4-{2-[4-(2,3-Difluorophenyl)-piperazin-1-yl]ethyl}cyclohexyl)-2-methanesulfonylacetamide]
218 °C	CC(=O)NCC(=O)N[C@H]1CC[C@H](CCN2CCN(c3cccc(F)c3F)CC2)CC1 [Example 145, 2-Acetylamino-N-(4-{2-[4-(2,3-difluorophenyl)piperazin-1-yl]ethyl}cyclohexyl)acetamide]
92 °C	CC(=O)CN1CCC(CCN2CCN(c3ccc(C)cc3)CC2)CC1 [Example 310, 1-{4-[2-(4-p-Tolylpiperazin-1-yl)ethyl]piperidin-1-yl}propan-2-one]
185 °C	COCCCC(=O)N[C@H]1CC[C@H](CCN2CCN(c3ccc(F)cc3F)CC2)CC1 [Example 504, N-(4-{2-[4-(2,4-Difluorophenyl)piperazin-1-yl]ethyl}cyclohexyl)-4-methoxybutanamide]
118 °C	CCN(CC)CCC(=O)N[C@H]1CC[C@H](CCN2CCN(c3cccc(F)c3)CC2)CC1 [Example 411, 3-Diethylamino-N-(4-{2-[4-(3-fluorophenyl)piperazin-1-yl]ethyl}cyclohexyl)propanamide]
85 °C	CC(=O)CN1CCC(CCN2CCN(c3cccc(C(C)=O)c3)CC2)CC1 [Example 603, 1-(4-{2-[4-(3-Acetylphenyl)-piperazin-1-yl]ethyl}piperidin-1-yl)propan-2-one]
209 °C	N#CCC(=O)N[C@H]1CC[C@H](CCN2CCN(c3cc(F)c(F)c(F)c3)CC2)CC1 [Example 341, 2-Cyano-N-(4-{2-[4-(3,4,5-trifluorophenyl)piperazin-1-yl]ethyl}cyclohexyl)acetamide]
219 °C	Cl.O=C(CCC(F)(F)F)N1CCC(CCN2CCN(c3cccc4c3CCC4)CC2)CC1
270 °C	CC(=O)CN1CCC(CCN2CCN(c3ccc(F)cc3)CC2)CC1.Cl.Cl
201 °C	Cc1ccc(N2CCN(CC[C@H]3CC[C@H](NC(=O)C4=CCCC4)CC3)CC2)cc1C [Example 507, Cyclopent-1-enecarboxylic acid (4-{2-[4-(3,4-dimethylphenyl)-piperazin-1-yl]ethyl}cyclohexyl) amide]
197 °C	Cc1ccc(N2CCN(CC[C@H]3CC[C@H](NC(=O)C4=CCCC4)CC3)CC2)cc1Cl [Example 491, Cyclopent-1-enecarboxylic acid (4-{2-[4-(3-chloro-4-methylphenyl)piperazin-1-yl]ethyl}cyclohexyl) amide]
270 °C	CC(=O)CN1CCC(CCN2CCN(c3cccc(F)c3F)CC2)CC1.Cl.Cl
188 °C	N#CCC(=O)N[C@H]1CC[C@H](CCN2CCN(c3cccc(C#N)c3)CC2)CC1 [Example 90, 2-Cyano-N-(4-{2-[4-(3-cyanophenyl)piperazin-1-yl]ethyl}cyclohexyl)acetamide trans/cis 75/25]
181 °C	N#CCC(=O)N[C@H]1CC[C@H](CCN2CCN(c3ccc(F)c(C(F)(F)F)c3)CC2)CC1 [Example 277, 2-Cyano-N-(4-{2-[4-(4-fluoro-3-trifluoromethylphenyl)piperazin-1-yl]ethyl}cyclohexyl)acetamide]
199 °C	O=C(N[C@H]1CC[C@H](CCN2CCN(c3ccc(F)cc3F)CC2)CC1)C1CC=CC1 [Example 494, Cyclopent-3-enecarboxylic acid (4-{2-[4-(2,4-difluorophenyl)-piperazin-1-yl]ethyl}cyclohexyl) amide]
82 °C	CCOC(=O)CN1CCC(CCN2CCN(c3cccc(C)c3C)CC2)CC1 [Example 533, (4-{2-[4-(2,3-Dimethylphenyl)piperazin-1-yl]ethyl}piperidin-1-yl)acetic acid ethyl ester]
320 to 325 °C	CC(=O)CN1CCC(CCN2CCN(c3cccc(Cl)c3C)CC2)CC1.Cl.Cl
119 °C	Cc1cc(C)cc(N2CCN(CC[C@H]3CC[C@@H](NC(=O)CC#N)CC3)CC2)c1 [Example 336, 2-Cyano-N-(4-{2-[4-(3,5-dimethylphenyl)piperazin-1-yl]ethyl}cyclohexyl)acetamide]
300 °C	CC(=O)CN1CCC(CCN2CCN(c3cc(C)cc(Cl)c3)CC2)CC1.Cl.Cl
143 °C	Cc1cccc(C)c1N1CCN(CC[C@H]2CC[C@H](NC(=O)CC#N)CC2)CC1 [Example 267, 2-Cyano-N-(4-{2-[4-(2,6-dimethylphenyl)piperazin-1-yl]ethyl}cyclohexyl)acetamide]
168 °C	N#CCC(=O)N[C@H]1CC[C@H](CCN2CCN(c3cccc(Br)c3)CC2)CC1 [Example 280, N-(4-{2-[4-(3-Bromophenyl)piperazin-1-yl]ethyl}cyclohexyl)-2-cyanoacetamide]
202 °C	O=C(N[C@H]1CC[C@H](CCN2CCN(c3cccc(F)c3)CC2)CC1)C1=CCCC1 [Example 400, Cyclopent-1-enecarboxylic acid (4-{2-[4-(3-fluorophenyl)-piperazin-1-yl]ethyl}cyclohexyl) amide]
260 °C	CC(=O)CN1CCC(CCN2CCN(c3cccc(C)c3)CC2)CC1.Cl.Cl
230 °C	CC(=O)CN1CCC(CCN2CCN(c3ccc(Cl)c(Cl)c3F)CC2)CC1.Cl.Cl
170 °C	N#CCCCC(=O)N[C@H]1CC[C@H](CCN2CCN(c3cccc(F)c3)CC2)CC1 [Example 395, 4-Cyano-N-(4-{2-[4-(3-fluorophenyl)piperazin-1-yl]ethyl}cyclohexyl)butanamide]

Reference: patent publication US8802678B2, “Carbonylated (aza) cyclohexanes as dopamine D3 receptor ligands” (Bioprojet, priority 2006, dated 2014)
